Tested on: Human umbilical vein endothelial cells (HUVEC)
Assay: alamarBlue viability assay in HUVECs
Assay type: cell-based
Conditions: 72 h
Procedure: Human umbilical vein endothelial cells (HUVEC), the growth medium EGM and the basal medium EBM was obtained from Lonza. Additional FCS for the starving medium was used form Invitrogen.
The viability assay with alamarBlue® from Invitrogen was done in 96 well gelatin coated plates from BD.
The tested compounds were dissolved in DMSO at a stock concentration of 10 mM.
VEGF-A165 was obtained from R&D Systems® and has been dissolved at a stock concentration of 100 ug/ml in PBS.
HUVECs cells were maintained in Endothial growth medium (EGM) until Passage 5. For the viability assay HUVECs have been seeded in EBM with 0.5% FCS on gelatin coated 96 well plates at a cell density of 11.000 cells/well. Outer wells were left free and have been filled with medium afterwards. Cells were incubated overnight in a cell culture incubator at 37° C. with 5% CO2. Compounds and VEGF have been diluted in EBM/0.5% FCS to a 20× working concentration. 5 ul of the 20× pre-dilution have been added to the cells. HUVECs which have to be intended to grow under hypoxia conditions have been transferred to a cell culture incubator with 1% O2, 5% CO2 and 37° C. HUVECs grown under normoxia conditions were incubated in a normal cell culture incubator. After 72 h, 11 ul of alamarBlue® have been added to each well of the cells subsequently incubated for 4 h in the cell culture incubator. The absorbance has been detected at 570 nm with a reference wavelength of 600 nm.

Compound	alamarBlue assay OD 570 nm-600 nm (4.1 nM, hypoxia)	alamarBlue assay OD 570 nm-600 nm (4.1 nM, normoxia)	alamarBlue assay OD 570 nm-600 nm (10.2 nM, hypoxia)	alamarBlue assay OD 570 nm-600 nm (10.2 nM, normoxia)	alamarBlue assay OD 570 nm-600 nm (25.6 nM, hypoxia)	alamarBlue assay OD 570 nm-600 nm (25.6 nM, normoxia)	alamarBlue assay OD 570 nm-600 nm (64 nM, hypoxia)	alamarBlue assay OD 570 nm-600 nm (64 nM, normoxia)	alamarBlue assay OD 570 nm-600 nm (160 nM, hypoxia)	alamarBlue assay OD 570 nm-600 nm (160 nM, normoxia)	alamarBlue assay OD 570 nm-600 nm (400 nM, hypoxia)	alamarBlue assay OD 570 nm-600 nm (400 nM, normoxia)	alamarBlue assay OD 570 nm-600 nm (1000 nM, hypoxia)	alamarBlue assay OD 570 nm-600 nm (1000 nM, normoxia)	alamarBlue assay OD 570 nm-600 nm (2500 nM, hypoxia)	alamarBlue assay OD 570 nm-600 nm (2500 nM, normoxia)	effect on viability of HUVECs (hypoxia)	effect on viability of HUVECs (normoxia)	other results
Cc1cc(C)c2c(c1)[C@@H](N(Cc1cc(C(F)(F)F)cc(C(F)(F)F)c1)c1nnn(C)n1)CCCN2C[C@H]1CC[C@H](C(=O)O)CC1 [Evacetrapib, Trans-4-({(5S)-5-[{[3,5-bis(trifluoromethyl)phenyl]methyl}(2-methyl-2H-tetrazol-5-yl)amino]-7,9-dimethyl-2,3,4,5-tetrahydro-1H-benzazepin-1-yl}methyl) cydohexanecarboxylic acid]	0.0141	0.0032	0.0129	0.0158	0.0131	0.0164	0.0076	0.0051	0.0168	0.0227	0.0403	0.0103	0.0564	0.0191	−0.1084	−0.0107	negative effect on the cell viability	no influence of viability could be detected	–
CCOC(=O)N1c2ccc(C(F)(F)F)cc2[C@@H](N(Cc2cc(C(F)(F)F)cc(C(F)(F)F)c2)C(=O)OC)C[C@H]1CC [Torcetrapib, [2R, 4S] 4-[(3,5-bis-trifluoromethyl-benzyl)-methoxycarbonyl-amino]-2-ethyl-6-trifluoromethyl-3,4-dihydro-2H-quinoline-1-carboxylic acid ethyl ester]	0.0129	0.0020	0.0200	−0.0004	0.0118	0.0160	0.0111	0.0007	0.0137	0.0194	0.0308	0.0152	−0.0388	0.0001	−0.0784	0.0138	negative effect on the cell viability	no influence of viability could be detected	–
VEGF	–	–	–	–	–	–	–	–	–	–	–	–	–	–	–	–	–	–	viability measured at 570 nm (alamarBlue) (VEGF 1.2 ng/ml, hypoxia): 0.0480; viability measured at 570 nm (alamarBlue) (VEGF 1.2 ng/ml, normoxia): 0.0268; viability measured at 570 nm (alamarBlue) (VEGF 2.3 ng/ml, hypoxia): 0.0679; viability measured at 570 nm (alamarBlue) (VEGF 2.3 ng/ml, normoxia): 0.0394; viability measured at 570 nm (alamarBlue) (VEGF 4.7 ng/ml, hypoxia): 0.0983; viability measured at 570 nm (alamarBlue) (VEGF 4.7 ng/ml, normoxia): 0.0582; viability measured at 570 nm (alamarBlue) (VEGF 9.4 ng/ml, hypoxia): 0.1114; viability measured at 570 nm (alamarBlue) (VEGF 9.4 ng/ml, normoxia): 0.0908; viability measured at 570 nm (alamarBlue) (VEGF 18.8 ng/ml, hypoxia): 0.1039; viability measured at 570 nm (alamarBlue) (VEGF 18.8 ng/ml, normoxia): 0.1265; viability measured at 570 nm (alamarBlue) (VEGF 37.5 ng/ml, hypoxia): 0.0927; viability measured at 570 nm (alamarBlue) (VEGF 37.5 ng/ml, normoxia): 0.1449; viability measured at 570 nm (alamarBlue) (VEGF 75 ng/ml, hypoxia): 0.0906; viability measured at 570 nm (alamarBlue) (VEGF 75 ng/ml, normoxia): 0.1642; viability measured at 570 nm (alamarBlue) (VEGF 150 ng/ml, hypoxia): 0.0825; viability measured at 570 nm (alamarBlue) (VEGF 150 ng/ml, normoxia): 0.1618; survival signal in HUVECs in response to VEGF-A165 (normoxia and hypoxia): dose dependent survival signal
COc1cc(F)c(C(C)C)cc1-c1ccc(C(F)(F)F)cc1CN1C(=O)O[C@H](c2cc(C(F)(F)F)cc(C(F)(F)F)c2)[C@@H]1C [Anacetrapib, (4S,5R)-5-[3,5-bis(trifluoromethyl)phenyl]-3-({2-[4-fluoro-2-methoxy-5-(propan-2-yl)phenyl]-5-(trifluoromethyl)phenyl}methyl)-4-methyl-1,3-oxazolidin-2-one]	0.0003	0.0096	0.0065	0.0170	0.0014	0.0203	0.0093	0.0119	−0.0022	0.0168	0.0260	0.0352	0.0565	0.0662	0.0814	0.0846	positive effect on viability, albeit with lower efficacy	positive effect of viability	–
